From PubChem BioAssay AID1918991 (Molecular Pharmacology Branch, DTP, NCI, 2023)

Tested on: 186277-243-T-J2-PDC complex spheroid growth
Test: Anticancer human tumor 186277-243-T-J2-PDC patient-derived colon adenocarcinoma cell line growth inhibition [AhR]
Details: for IC50: curve of first compound; for viability, T/C: stronger effect = lower value; active = viability on the fitted dose curve at most 10% of control; inactive = the rest
From the text: Multicellular complex tumor spheroid response to aryl hydrocarbon receptor antagonists in combination with a variety of drugs and investigational agents in selected tumor cell lines
The current study was undertaken to assess response to aryl hydrocarbon receptor antagonists in combination with standard-of-care drugs and investigational agents in solid tumor complex spheroid models. Complex spheroids include a stromal component modeled by human endothelial cells (HUVEC) and fibroblasts modeled by human mesenchymal stem cells (MSCs). The concentration ranges selected for each drug and investigational agent were based upon clinically achievable concentrations if the clinical Cmax of the agent was known.
Compounds. The drugs and investigational agents: BAY 2416964 (NSC825713), GNF351 (NSC835774), CH-223191 (NSC835775), CPI-455 (NSC825282), aza-TdCyd (NSC777586), decitabine (NSC127716), belinostat (NSC758774), entinostat (NSC756642), pevonedistat (NSC761192), tazemetostat (NSC777109), talazoparib (NSC765396), olaparib (NSC753686), selinexor (NSC780203), nedisertib (M3814, NSC802822), bortezomib (NSC756655), venetoclax (NSC766270), doxorubicin (NSC123127), elimusertib (BAY189344, NSC800525), ceralasertib (AZD6738, NSC777638), TAK-243 (NSC785004), alisertib (NSC759677), etoposide (NSC141540), topotecan (NSC609699), eribulin (NSC707389), gemcitabine (NSC613327), carboplatin (NSC241240), cisplatin (NSC119875), and SN-38 (NSC673596) were obtained from the National Cancer Institute (NCI) Developmental Therapeutics Program Chemical Repository (32). The FDA-approved anticancer drug set is available from the Developmental Therapeutics Program at https://dtp.cancer.gov/organization/dscb/obtaining/available plates.htm. […] The stock solutions were prepared in dimethyl sulfoxide (DMSO, Sigma-Aldrich, St. Louis, MO, cat. D2650), except for the platinum compounds which were prepared in saline (Quality Biological, Gaithersburg, MD, cat. 114-055-101), at 800-fold the tested concentration and stored at -70 degrees C prior to their use. All drugs and investigational agents were tested over a range starting from a high concentration at or near the clinical Cmax and decreasing in half-log increments. If the clinical Cmax for an agent had not been determined, the highest concentration tested was 10 microM (Table 1).
Cell Culture. All cells were maintained in an incubator at 37 degrees C and 5% CO2 with 95% humidity. The PDC lines were cultured according to standard operating procedures established by the NCI PDMR (https://pdmr.cancer.gov). Briefly, all PDCs were thawed and cultured in Matrigel-coated flasks prepared with a working solution of 1X Ham's F-12 nutrient mix, without supplementation (Invitrogen, Waltham, MA, cat. 11765054), 100 U/mL penicillin-streptomycin (Invitrogen, cat. 15140122), and 2.5% Matrigel (Corning Inc., Corning, NY, cat. 354248) for the first three passages. All PDCs were cultured in complete DMEM/F-12 media containing advanced DMEM/F-12 (Invitrogen, cat. 12634028), 4.9% defined fetal bovine serum, heat inactivated (HyClone Laboratories Inc., Logan, UT, cat. SH30070.03HI), 389 ng/mL hydrocortisone (Sigma-Aldrich, cat. H4001), 9.7 ng/mL human EGF recombinant protein (Invitrogen, cat. PHG0313), 23.4 microg/mL adenine (Sigma-Aldrich, cat. A2786), 97.3 U/mL penicillin-streptomycin (Invitrogen, cat. 15140122), 1.9 mM L-glutamine (Invitrogen, cat. 25030081), and 9.7 microM Y-27632 dihydrochloride (Tocris Bioscience, Bristol, United Kingdom, cat. 1254). The PDCs were cultured in complete DMEM/F12 media without 10 microM Y-27632 dihydrochloride for at least two passages prior to the screen. The established cell lines NCI-H1341 and […] were cultured in DMEM/F-12, HEPES (Invitrogen, cat. 11330032), 5% defined fetal bovine serum (HyClone Laboratories Inc., cat. SH30070.03), ITS premix universal culture supplement [insulin (5 microg/mL), transferrin (5 microg/mL), and selenious acid (5 ng/mL)] […]

[1] = second compound 0.1 µM, first compound 0.00316 µM
[2] = second compound 0.1 µM, first compound 0.01 µM
[3] = second compound 0.1 µM, first compound 0.0316 µM
[4] = second compound 0.1 µM, first compound 0.1 µM
[5] = second compound 0.316 µM, first compound 0.00316 µM
[6] = second compound 0.316 µM, first compound 0.01 µM
[7] = second compound 0.316 µM, first compound 0.0316 µM
[8] = second compound 0.316 µM, first compound 0.1 µM
[9] = second compound 1 µM, first compound 0.00316 µM
[10] = second compound 1 µM, first compound 0.01 µM
[11] = second compound 1 µM, first compound 0.0316 µM
[12] = second compound 1 µM, first compound 0.1 µM
[13] = second compound 3.16 µM, first compound 0.00316 µM
[14] = second compound 3.16 µM, first compound 0.01 µM
[15] = second compound 3.16 µM, first compound 0.0316 µM
[16] = second compound 3.16 µM, first compound 0.1 µM
[17] = second compound 10 µM, first compound 0.00316 µM
[18] = second compound 10 µM, first compound 0.01 µM
[19] = second compound 10 µM, first compound 0.0316 µM
[20] = second compound 10 µM, first compound 0.1 µM
[21] = second compound 0.1 µM, first compound 0.316 µM
[22] = second compound 0.1 µM, first compound 1 µM
[23] = second compound 0.1 µM, first compound 3.16 µM
[24] = second compound 0.1 µM, first compound 10 µM
[25] = second compound 0.316 µM, first compound 0.316 µM
[26] = second compound 0.316 µM, first compound 1 µM
[27] = second compound 0.316 µM, first compound 3.16 µM
[28] = second compound 0.316 µM, first compound 10 µM
[29] = second compound 1 µM, first compound 0.316 µM
[30] = second compound 1 µM, first compound 1 µM
[31] = second compound 1 µM, first compound 3.16 µM
[32] = second compound 1 µM, first compound 10 µM
[33] = second compound 3.16 µM, first compound 0.316 µM
[34] = second compound 3.16 µM, first compound 1 µM
[35] = second compound 3.16 µM, first compound 3.16 µM
[36] = second compound 3.16 µM, first compound 10 µM
[37] = second compound 10 µM, first compound 0.316 µM
[38] = second compound 10 µM, first compound 1 µM
[39] = second compound 10 µM, first compound 3.16 µM
[40] = second compound 10 µM, first compound 10 µM
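Note: spheroids exposed to compounds for seven days before the viability read.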
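Throughout, for viability, T/C: luminescent signal used as a stand-in for viable cell amount; 100% = DMSO vehicle control wells.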

CC[C@@]1(O)C(=O)OCc2c1cc1n(c2=O)Cc2cc3c(CN(C)C)c(O)ccc3nc2-1 + CC(CO)NC(=O)c1cc(-c2ccc(Cl)cc2)nn(-c2cnn(C)c2)c1=O
0.0141 µM: IC50 (second compound 0.1 µM)
inactive: viability, T/C (second compound 0.1 µM, first compound 0.000316 µM) 101% | viability, T/C (second compound 0.1 µM, first compound 0.001 µM) 101% | viability, T/C [1] 89.5% | viability, T/C [2] 57.3% | viability, T/C [3] 32.2% | viability, T/C [4] 21.5% | viability, T/C (second compound 0.316 µM, first compound 0.000316 µM) 96.5% | viability, T/C (second compound 0.316 µM, first compound 0.001 µM) 102% | viability, T/C [5] 93.5% | viability, T/C [6] 59.6% | viability, T/C [7] 30.1% | viability, T/C [8] 22.2% | viability, T/C (second compound 1 µM, first compound 0.000316 µM) 90.4% | viability, T/C (second compound 1 µM, first compound 0.001 µM) 102% | viability, T/C [9] 91% | viability, T/C [10] 62.2% | viability, T/C [11] 27.6% | viability, T/C [12] 22% | viability, T/C (second compound 3.16 µM, first compound 0.000316 µM) 88.3% | viability, T/C (second compound 3.16 µM, first compound 0.001 µM) 102% | viability, T/C [13] 77.1% | viability, T/C [14] 55.5% | viability, T/C [15] 24.7% | viability, T/C [16] 22.7% | viability, T/C (second compound 10 µM, first compound 0.000316 µM) 75% | viability, T/C (second compound 10 µM, first compound 0.001 µM) 75.4% | viability, T/C [17] 78.3% | viability, T/C [18] 56.2% | viability, T/C [19] 26.5% | viability, T/C [20] 24.1%
0.0145 µM: IC50 (second compound 0.316 µM)
0.015 µM: IC50 (second compound 1 µM)
0.0127 µM: IC50 (second compound 10 µM)
0.0113 µM: IC50 (second compound 3.16 µM)

COc1cc(C2c3cc4c(cc3C(OC3OC5COC(C)OC5C(O)C3O)C3COC(=O)C23)OCO4)cc(OC)c1O (stereo not given) + CC(CO)NC(=O)c1cc(-c2ccc(Cl)cc2)nn(-c2cnn(C)c2)c1=O
0.281 µM: IC50 (second compound 0.316 µM)
inactive: viability, T/C [3] 102% | viability, T/C [4] 83.9% | viability, T/C [21] 45.4% | viability, T/C [22] 20.3% | viability, T/C [23] 15.5% | viability, T/C [24] 8.93% | viability, T/C [7] 92.8% | viability, T/C [8] 90.6% | viability, T/C [25] 45% | viability, T/C [26] 17.8% | viability, T/C [27] 17.6% | viability, T/C [28] 8.41% | viability, T/C [11] 89.2% | viability, T/C [12] 80.2% | viability, T/C [29] 42.6% | viability, T/C [30] 20.7% | viability, T/C [31] 16.4% | viability, T/C [32] 8.47% | viability, T/C [15] 84.5% | viability, T/C [16] 71.6% | viability, T/C [33] 33.7% | viability, T/C [34] 20.2% | viability, T/C [35] 14.5% | viability, T/C [36] 7.04% | viability, T/C [19] 68.3% | viability, T/C [20] 47.4% | viability, T/C [37] 25.2% | viability, T/C [38] 19.2% | viability, T/C [39] 10.4%
0.0816 µM: IC50 (second compound 10 µM)
0.26 µM: IC50 (second compound 1 µM)
0.197 µM: IC50 (second compound 3.16 µM)
active: viability, T/C [40] 6.47%
0.279 µM: IC50 (second compound 0.1 µM)

COc1cccc2c1C(=O)c1c(O)c3c(c(O)c1C2=O)CC(O)(C(=O)CO)CC3OC1CC(N)C(O)C(C)O1 (stereo not given) + CC(CO)NC(=O)c1cc(-c2ccc(Cl)cc2)nn(-c2cnn(C)c2)c1=O
inactive: viability, T/C [3] 39.3% | viability, T/C [4] 28.8% | viability, T/C [7] 38.3% | viability, T/C [8] 27.1% | viability, T/C [11] 37.9% | viability, T/C [12] 29% | viability, T/C [15] 33.9% | viability, T/C [16] 27.5% | viability, T/C [19] 28.2% | viability, T/C [20] 24.3%
< 0.0316 µM: IC50 (second compound 0.1 µM) | IC50 (second compound 0.316 µM) | IC50 (second compound 1 µM) | IC50 (second compound 3.16 µM) | IC50 (second compound 10 µM)
active: viability, T/C [21] 7.36% | viability, T/C [22] 0.1% | viability, T/C [23] 0.08% | viability, T/C [24] 0.32% | viability, T/C [25] 7.61% | viability, T/C [26] 0.08% | viability, T/C [27] 0.06% | viability, T/C [28] 0.6% | viability, T/C [29] 8.06% | viability, T/C [30] 0.09% | viability, T/C [31] 0.37% | viability, T/C [32] 0.22% | viability, T/C [33] 7.26% | viability, T/C [34] 0.08% | viability, T/C [35] 0.09% | viability, T/C [36] 0.64% | viability, T/C [37] 4.49% | viability, T/C [38] 0.2% | viability, T/C [39] 0.17% | viability, T/C [40] 0.32%

Nc1ncn(C2CC(O)C(CO)O2)c(=O)n1 (stereo not given) + CC(CO)NC(=O)c1cc(-c2ccc(Cl)cc2)nn(-c2cnn(C)c2)c1=O
inactive: viability, T/C [1] 110% | viability, T/C [2] 103% | viability, T/C [3] 89.3% | viability, T/C [4] 85.1% | viability, T/C [21] 64.5% | viability, T/C [22] 52.1% | viability, T/C [5] 92% | viability, T/C [6] 82.3% | viability, T/C [7] 85.8% | viability, T/C [8] 84.9% | viability, T/C [25] 63.6% | viability, T/C [26] 52.8% | viability, T/C [9] 84.6% | viability, T/C [10] 97.6% | viability, T/C [11] 96.1% | viability, T/C [12] 80.9% | viability, T/C [29] 66.2% | viability, T/C [30] 55.2% | viability, T/C [13] 91.5% | viability, T/C [14] 95.1% | viability, T/C [15] 94.3% | viability, T/C [16] 82.5% | viability, T/C [33] 66.8% | viability, T/C [34] 59.4% | viability, T/C [17] 90.3% | viability, T/C [18] 81.2% | viability, T/C [19] 90.9% | viability, T/C [20] 79% | viability, T/C [37] 63.1% | viability, T/C [38] 51.7%
> 1 µM: IC50 (second compound 0.1 µM) | IC50 (second compound 0.316 µM) | IC50 (second compound 1 µM) | IC50 (second compound 3.16 µM) | IC50 (second compound 10 µM)
